# Test results as given in ChEMBL document CHEMBL2311374, “Anti-angiogenesis and immunomodulatory activities of an anti-tumor sesquiterpene bigelovin isolated from Inula helianthus-aquatica” (Eur J Med Chem, 2013).
# Active and inactive are the calls of the source. No cut-off for these calls is given here.
# Columns and labels:
# [1] = Cytotoxicity against human HMEC1 cells; assay type: cell-based; settings: hmec-1
# [2] = system: HMEC-1; assay: Effect on cell adhesion gene expression in TNFalpha stimulated HMEC1 cells assessed as reduction in ICAM1 mRNA level at 1000 or 3000 nM measured after 12 hrs by real-time PCR analysis; assay type: functional, Homo sapiens; design: scale not given: the % may be the effect or the level left
# [3] = species: Danio rerio; assay: Anti-angiogenic activity in transgenic zebrafish Tg(fli1a:EGFP)y1 1 to 4 cell stage embryo assessed as inhibition of subintestinal vessel length measured at 25 to 100 uM after 48 hrs by fluorescent microscopy; assay type: functional, tissue-based
# [4] = Cytotoxicity against human HMEC1 cells at 1000 or 3000 nM measured after 12 hrs by MTT assay; assay type: cell-based; settings: hmec-1, 12 h
# [5] = system: HMEC-1; assay: Effect on cell adhesion gene expression in TNFalpha stimulated HMEC1 cells assessed as reduction in E-selectin mRNA level at 1000 or 3000 nM measured after 12 hrs by real-time PCR analysis; assay type: functional, Homo sapiens; design: scale not given: the % may be the effect or the level left
# [6] = system: HMEC-1; assay: Inhibition of HMEC1 cells growth measured after 48 hrs by MTT assay; assay type: functional, cell-based; settings: Homo sapiens, HMEC-1, 48 h
# [7] = system: PBMC; assay: Immunomodulatory effect in phytohemagglutininin-activated human PBMC assessed as inhibition of TNFalpha production measured after 24 hrs by ELISA; assay type: functional, cell-based
# [8] = system: PBMC; assay: Cytotoxicity against human PBMC at 62.5 to 250 nM for 72 hrs by XTT assay; assay type: cell-based; settings: 0.25 µM
# [9] = species: Danio rerio; assay: Anti-angiogenic activity in transgenic zebrafish Tg(fli1a:EGFP)y1 1 to 4 cell stage embryo assessed as down-regulation of Tie-2 angiogenic gene expression measured after 24 hrs by real-time PCR analysis; assay type: functional
# [10] = system: HMEC-1; assay: Effect on cell adhesion gene expression in TNFalpha stimulated HMEC1 cells assessed as reduction in VCAM1 protern expression at 1000 or 3000 nM measured after 24 hrs by Western blotting; assay type: functional, cell-based; settings: Homo sapiens
# [11] = species: Danio rerio; assay: Anti-angiogenic activity in transgenic zebrafish Tg(fli1a:EGFP)y1 1 to 4 cell stage embryo assessed as down-regulation of Tie-1 angiogenic gene expression measured after 24 hrs by real-time PCR analysis; assay type: functional
# [12] = system: HMEC-1; assay: Effect on cell adhesion gene expression in TNFalpha stimulated HMEC1 cells assessed as reduction in VCAM1 mRNA level at 1000 or 3000 nM measured after 12 hrs by real-time PCR analysis; assay type: functional, Homo sapiens; design: scale not given: the % may be the effect or the level left
# [13] = system: HMEC-1; assay: Effect on cell adhesion gene expression in TNFalpha stimulated HMEC1 cells assessed as reduction in ICAM1 protern expression at 1000 or 3000 nM measured after 24 hrs by Western blotting; assay type: functional, cell-based; settings: Homo sapiens
# [14] = species: Danio rerio; assay: Anti-angiogenic activity in transgenic zebrafish Tg(fli1a:EGFP)y1 1 to 4 cell stage embryo assessed as down-regulation of Ang-2 angiogenic gene expression measured after 24 hrs by real-time PCR analysis; assay type: functional
# [15] = system: PBMC; assay: Immunomodulatory effect in phytohemagglutininin-activated human PBMC assessed as inhibition of IL12 production measured after 24 hrs by ELISA; assay type: functional, cell-based
# [16] = species: Danio rerio; assay: Anti-angiogenic activity in transgenic zebrafish Tg(fli1a:EGFP)y1 1 to 4 cell stage embryo assessed as complete inhibition of subintestinal vessels formation measured at 100 uM after 48 hrs by fluorescent microscopy; assay type: functional, tissue-based
# [17] = system: PBMC; assay: Immunomodulatory effect in phytohemagglutininin-activated human PBMC assessed as inhibition of INFgamma production measured after 24 hrs by ELISA; assay type: functional, cell-based
# [18] = system: PBMC; assay: Immunomodulatory effect in phytohemagglutininin-activated human PBMC assessed as inhibition of IL2 production measured after 24 hrs by ELISA; assay type: functional, cell-based
# [19] = species: Danio rerio; assay: Anti-angiogenic activity in transgenic zebrafish Tg(fli1a:EGFP)y1 1 to 4 cell stage embryo assessed as down-regulation of Ang-1 angiogenic gene expression measured after 24 hrs by real-time PCR analysis; assay type: functional
# [20] = system: HMEC-1; assay: Inhibition of cell proliferation of HMEC1 cells assessed as [methyl-3H] thymidine incorporation measured after 48 hrs; assay type: functional, cell-based; settings: Homo sapiens
# [21] = system: PBMC; assay: Immunomodulatory effect in phytohemagglutininin-activated human PBMC assessed as stimulation of cell proliferation at 62.5 to 250 nM measured after 72 hrs; assay type: functional, cell-based
# [22] = system: HMEC-1; assay: Antimigratory activity against HMEC1 cells assessed as decrease in cell motility measured after 24 hrs by scratch wound assay; assay type: functional, cell-based; settings: Homo sapiens
# [23] = system: HMEC-1; assay: Inhibition of HMEC1 cells growth measured after 48 hrs; assay type: functional, cell-based; settings: Homo sapiens, HMEC-1, 48 h
# [24] = species: Danio rerio; assay: Anti-angiogenic activity in transgenic zebrafish Tg(fli1a:EGFP)y1 1 to 4 cell stage embryo assessed as inhibition of subintestinal vessels formation measured after 48 hrs by fluorescent microscopy; assay type: functional, tissue-based
# [25] = system: HMEC-1; assay: Effect on cell adhesion gene expression in TNFalpha stimulated HMEC1 cells assessed as reduction in E-selectin protern expression at 1000 or 3000 nM measured after 24 hrs by Western blotting; assay type: functional, cell-based; settings: Homo sapiens
smiles,measurement,setting,value
C=C1C(=O)O[C@H]2C[C@@H](C)[C@@H]3C=CC(=O)[C@@]3(C)[C@@H](OC(C)=O)[C@H]12 [BIGELOVIN],Activity,[1],Non-toxic
same,inhibition (INH),[1],Dose-dependent effect
same,Activity,[2],76%
same,inhibition,[2]; Homo sapiens,Dose-dependent effect
same,inhibition,[3],Active
same,Activity,[4],Non-toxic
same,Activity,[5],67%
same,IC50,[6],2680 nM
same,inhibition,[7],Dose-dependent effect
same,Activity,[8],Non-toxic
same,inhibition,[9],Active
same,Activity,[10],Active
same,inhibition,[11],inactive
same,Activity,[12],74%
same,Activity,[13],Active
same,inhibition,[14],Active
same,inhibition,[15],Dose-dependent effect
same,inhibition,[16],Active
same,inhibition,[17],Dose-dependent effect
same,inhibition,[18],Dose-dependent effect
same,inhibition,[19],Active
same,inhibition,[20],Dose-dependent effect
same,Activity,[21],Active
same,inhibition,[22],Dose-dependent effect
same,IC50,[23],946 nM
same,inhibition,[24],Dose-dependent effect
same,Activity,[25],Active
